The values below come from ChEMBL document CHEMBL5465560, “Selectivity Literature for EUbOPEN Chemogenomic Library” (2024).

Test [1] has as its target T1, Serine/threonine-protein kinase BRSK2 (Homo sapiens) (UniProt Q8IWQ3).
T1 sequence (whole entry): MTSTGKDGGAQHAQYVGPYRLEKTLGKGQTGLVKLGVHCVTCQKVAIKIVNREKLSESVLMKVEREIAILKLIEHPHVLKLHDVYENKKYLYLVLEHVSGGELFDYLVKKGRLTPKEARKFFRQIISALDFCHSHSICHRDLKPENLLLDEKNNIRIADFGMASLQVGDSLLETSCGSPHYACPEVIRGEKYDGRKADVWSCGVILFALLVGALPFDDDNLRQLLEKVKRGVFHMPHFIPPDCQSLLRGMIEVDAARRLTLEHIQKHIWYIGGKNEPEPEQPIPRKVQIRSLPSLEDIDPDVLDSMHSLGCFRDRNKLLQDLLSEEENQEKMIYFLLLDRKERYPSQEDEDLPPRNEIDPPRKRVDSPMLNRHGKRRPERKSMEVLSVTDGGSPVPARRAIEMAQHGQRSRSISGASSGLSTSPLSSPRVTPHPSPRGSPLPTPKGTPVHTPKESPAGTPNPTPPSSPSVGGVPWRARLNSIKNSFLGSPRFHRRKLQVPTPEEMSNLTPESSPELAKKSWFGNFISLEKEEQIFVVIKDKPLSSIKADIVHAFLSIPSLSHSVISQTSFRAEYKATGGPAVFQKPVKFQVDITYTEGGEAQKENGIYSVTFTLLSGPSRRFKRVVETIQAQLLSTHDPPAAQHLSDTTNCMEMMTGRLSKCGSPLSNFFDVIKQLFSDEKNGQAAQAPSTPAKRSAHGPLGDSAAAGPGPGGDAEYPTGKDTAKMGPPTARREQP
Kind of test: Selectivity interaction (KinomeScan (DiscoverX)) EUB0000607a BRSK2. The settings on record: at 10 µM.

For test [2], the target named is Mitogen-activated protein kinase 14 (Homo sapiens, UniProt Q16539). The test can be described thus: Selectivity interaction (KinomeScan (DiscoverX)) EUB0000655a MAPK14. The settings on record: at 10 µM.
Chain of Mitogen-activated protein kinase 14 (Q16539 whole entry): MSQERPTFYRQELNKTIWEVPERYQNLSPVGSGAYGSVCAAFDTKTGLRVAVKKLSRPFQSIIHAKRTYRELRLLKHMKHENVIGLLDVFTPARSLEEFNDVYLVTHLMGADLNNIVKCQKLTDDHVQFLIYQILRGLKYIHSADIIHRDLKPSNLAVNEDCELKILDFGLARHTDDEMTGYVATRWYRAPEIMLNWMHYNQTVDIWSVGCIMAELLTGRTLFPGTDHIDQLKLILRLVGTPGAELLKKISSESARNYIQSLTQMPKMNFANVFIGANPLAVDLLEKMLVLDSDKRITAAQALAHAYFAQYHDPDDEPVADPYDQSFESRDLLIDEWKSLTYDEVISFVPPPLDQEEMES
Test [3] deals with T2, Phosphatidylinositol 5-phosphate 4-kinase type-2 alpha (Homo sapiens) (UniProt P48426).
T2 sequence (whole entry): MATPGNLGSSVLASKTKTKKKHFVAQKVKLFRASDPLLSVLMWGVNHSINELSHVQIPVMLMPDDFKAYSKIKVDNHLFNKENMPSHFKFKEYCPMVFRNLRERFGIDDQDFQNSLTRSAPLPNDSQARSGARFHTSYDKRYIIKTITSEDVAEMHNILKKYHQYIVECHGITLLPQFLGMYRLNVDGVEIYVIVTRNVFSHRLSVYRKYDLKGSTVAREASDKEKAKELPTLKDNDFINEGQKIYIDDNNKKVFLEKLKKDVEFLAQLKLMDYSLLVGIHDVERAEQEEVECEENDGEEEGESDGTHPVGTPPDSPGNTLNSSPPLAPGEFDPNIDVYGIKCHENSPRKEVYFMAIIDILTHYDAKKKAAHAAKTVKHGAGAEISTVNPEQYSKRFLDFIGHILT
The test can be described thus: Selectivity interaction (ActivX KiNativ screen (ex vivo kinase selectivity in human PBMCs)) EUB0001619a PIP4K2A. Format: cell-based. The settings on record: PBMC, at 1 µM.

The target of test [4] is CDK4/Cyclin D3 (Homo sapiens) (UniProt P11802+P30281). Kind of test: (§1) Selectivity interaction (KinomeScan (DiscoverX)) EUB0001619a CDK4. It is filed as protein-complex assay. Conditions: at 1 µM.
Test [5] concerns the target Cyclin-dependent kinase 4/cyclin D1 (Homo sapiens) (UniProt P11802+P24385). The description is as §1. Format: protein-complex assay. Conditions: at 1 µM.
Test [6] concerns the target T3, Mitogen-activated protein kinase kinase kinase 2 (Homo sapiens) (UniProt Q9Y2U5).
T3 sequence (whole entry): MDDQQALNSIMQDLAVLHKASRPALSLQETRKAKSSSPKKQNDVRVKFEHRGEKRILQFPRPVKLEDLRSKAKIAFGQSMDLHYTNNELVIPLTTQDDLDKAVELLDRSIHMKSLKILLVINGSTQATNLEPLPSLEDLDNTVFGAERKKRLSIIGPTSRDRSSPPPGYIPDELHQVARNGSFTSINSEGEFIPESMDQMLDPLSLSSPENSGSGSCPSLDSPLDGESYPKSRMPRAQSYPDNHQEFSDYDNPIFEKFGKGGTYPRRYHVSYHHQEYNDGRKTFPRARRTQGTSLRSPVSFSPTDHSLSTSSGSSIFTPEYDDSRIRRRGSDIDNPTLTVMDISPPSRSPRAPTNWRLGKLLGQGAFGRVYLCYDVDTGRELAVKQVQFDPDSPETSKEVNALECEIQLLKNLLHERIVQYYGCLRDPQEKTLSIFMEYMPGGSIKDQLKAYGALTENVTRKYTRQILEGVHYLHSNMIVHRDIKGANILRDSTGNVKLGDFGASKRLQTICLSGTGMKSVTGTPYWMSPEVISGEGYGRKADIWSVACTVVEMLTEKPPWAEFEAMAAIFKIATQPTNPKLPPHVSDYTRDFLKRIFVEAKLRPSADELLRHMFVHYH
The test can be described thus: Selectivity interaction (ActivX KiNativ screen (ex vivo kinase selectivity in human PBMCs)) EUB0001619a MAP3K2. The settings on record: PBMC, at 1 µM. Format: cell-based.

For test [7], the target named is T4, Phosphatidylinositol 5-phosphate 4-kinase type-2 gamma (Homo sapiens) (UniProt Q8TBX8).
T4 sequence (whole entry): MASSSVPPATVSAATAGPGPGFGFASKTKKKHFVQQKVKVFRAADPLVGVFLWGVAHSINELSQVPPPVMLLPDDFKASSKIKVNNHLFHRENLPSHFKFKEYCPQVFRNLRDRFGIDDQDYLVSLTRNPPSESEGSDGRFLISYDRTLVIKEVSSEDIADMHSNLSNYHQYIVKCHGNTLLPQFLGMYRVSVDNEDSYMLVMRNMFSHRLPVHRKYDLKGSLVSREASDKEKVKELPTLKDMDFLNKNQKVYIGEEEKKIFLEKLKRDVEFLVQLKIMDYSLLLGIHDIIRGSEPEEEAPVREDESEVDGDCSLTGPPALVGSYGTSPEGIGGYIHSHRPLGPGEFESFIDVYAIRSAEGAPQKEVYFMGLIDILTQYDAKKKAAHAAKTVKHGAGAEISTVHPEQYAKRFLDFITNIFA
The test can be described thus: Selectivity interaction (ActivX KiNativ screen (kinase selectivity in THP-1 cell lysates)) EUB0000639a PIP4K2C. Conditions: lysate, at 0.04 µM. It is filed as subcellular.

The target in test [8] is SRSF protein kinase 3 (Homo sapiens) (UniProt Q9UPE1). Kind of test: Selectivity interaction (Kinase panel (Invitrogen)) EUB0000639a SRPK3. The settings on record: at 200 nM.
Chain of SRSF protein kinase 3 (Homo sapiens) (Q9UPE1 whole entry): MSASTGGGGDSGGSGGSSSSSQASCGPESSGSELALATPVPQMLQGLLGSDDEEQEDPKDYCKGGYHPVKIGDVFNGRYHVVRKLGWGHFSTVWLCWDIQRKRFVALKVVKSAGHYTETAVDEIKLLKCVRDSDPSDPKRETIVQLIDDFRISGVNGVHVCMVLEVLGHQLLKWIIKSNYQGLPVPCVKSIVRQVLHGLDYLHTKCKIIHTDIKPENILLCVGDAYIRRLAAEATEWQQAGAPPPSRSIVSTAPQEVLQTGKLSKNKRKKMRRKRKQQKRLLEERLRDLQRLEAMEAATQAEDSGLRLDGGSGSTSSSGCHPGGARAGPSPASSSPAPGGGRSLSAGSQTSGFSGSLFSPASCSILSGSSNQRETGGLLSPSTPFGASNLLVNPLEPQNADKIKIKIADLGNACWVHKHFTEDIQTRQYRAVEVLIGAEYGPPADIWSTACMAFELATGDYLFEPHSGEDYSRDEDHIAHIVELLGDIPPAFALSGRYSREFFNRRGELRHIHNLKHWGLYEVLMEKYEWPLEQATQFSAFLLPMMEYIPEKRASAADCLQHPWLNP
For test [9], the target named is Leukocyte tyrosine kinase receptor (Homo sapiens, UniProt P29376). Kind of test: Selectivity interaction (KinomeScan (DiscoverX)) EUB0000695a LTK. Conditions: at 100 nM.
Chain of Leukocyte tyrosine kinase receptor (P29376 whole entry): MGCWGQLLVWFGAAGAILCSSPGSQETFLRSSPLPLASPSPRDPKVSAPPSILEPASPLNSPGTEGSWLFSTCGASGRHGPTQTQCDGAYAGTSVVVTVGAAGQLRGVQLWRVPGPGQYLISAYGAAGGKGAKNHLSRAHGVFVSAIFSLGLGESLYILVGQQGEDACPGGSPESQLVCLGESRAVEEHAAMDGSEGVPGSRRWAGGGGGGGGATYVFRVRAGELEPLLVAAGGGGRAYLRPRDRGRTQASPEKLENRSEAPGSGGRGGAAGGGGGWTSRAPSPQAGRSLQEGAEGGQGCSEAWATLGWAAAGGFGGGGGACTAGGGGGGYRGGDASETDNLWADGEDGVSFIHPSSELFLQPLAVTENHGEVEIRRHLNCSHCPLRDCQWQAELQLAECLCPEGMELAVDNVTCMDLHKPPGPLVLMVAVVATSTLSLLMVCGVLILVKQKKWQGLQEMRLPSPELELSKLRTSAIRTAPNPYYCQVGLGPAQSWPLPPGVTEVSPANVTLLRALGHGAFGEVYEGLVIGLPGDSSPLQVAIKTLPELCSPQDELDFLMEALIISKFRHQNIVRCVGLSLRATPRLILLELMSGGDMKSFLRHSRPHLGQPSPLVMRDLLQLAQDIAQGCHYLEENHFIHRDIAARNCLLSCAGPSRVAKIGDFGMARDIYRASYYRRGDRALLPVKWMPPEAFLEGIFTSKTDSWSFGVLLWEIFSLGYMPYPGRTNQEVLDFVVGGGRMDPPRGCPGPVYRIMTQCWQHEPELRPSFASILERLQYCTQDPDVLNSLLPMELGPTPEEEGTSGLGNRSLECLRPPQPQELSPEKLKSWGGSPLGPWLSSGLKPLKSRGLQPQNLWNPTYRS
For test [10], the target named is Serine/threonine-protein kinase mTOR (Homo sapiens, UniProt P42345). Conditions: at 10 µM.
The target in test [11] is Dual specificity protein kinase CLK4 (Homo sapiens, UniProt Q9HAZ1). Kind of test: Selectivity interaction (KinomeScan (DiscoverX)) EUB0000595a CLK4. Conditions: at 10 µM.
Chain of Dual specificity protein kinase CLK4 (Q9HAZ1 whole entry, looked up): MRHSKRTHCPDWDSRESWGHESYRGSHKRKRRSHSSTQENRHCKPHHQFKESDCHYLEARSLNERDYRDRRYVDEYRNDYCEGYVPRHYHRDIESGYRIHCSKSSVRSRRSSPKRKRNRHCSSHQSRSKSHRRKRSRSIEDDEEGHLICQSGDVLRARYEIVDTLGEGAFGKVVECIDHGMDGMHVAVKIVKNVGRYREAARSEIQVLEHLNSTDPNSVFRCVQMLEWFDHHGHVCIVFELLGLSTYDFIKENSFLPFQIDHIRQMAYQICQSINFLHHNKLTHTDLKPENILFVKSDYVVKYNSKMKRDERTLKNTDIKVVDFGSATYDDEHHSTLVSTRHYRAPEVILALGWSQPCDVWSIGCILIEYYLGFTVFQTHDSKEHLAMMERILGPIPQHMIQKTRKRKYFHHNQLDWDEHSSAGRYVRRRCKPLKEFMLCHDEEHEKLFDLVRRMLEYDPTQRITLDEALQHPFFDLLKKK
The target in test [12] is Serine/threonine-protein kinase MRCK beta (Homo sapiens) (UniProt Q9Y5S2). Conditions: at 10 µM.
Chain of Serine/threonine-protein kinase MRCK beta (Homo sapiens) (Q9Y5S2 whole entry): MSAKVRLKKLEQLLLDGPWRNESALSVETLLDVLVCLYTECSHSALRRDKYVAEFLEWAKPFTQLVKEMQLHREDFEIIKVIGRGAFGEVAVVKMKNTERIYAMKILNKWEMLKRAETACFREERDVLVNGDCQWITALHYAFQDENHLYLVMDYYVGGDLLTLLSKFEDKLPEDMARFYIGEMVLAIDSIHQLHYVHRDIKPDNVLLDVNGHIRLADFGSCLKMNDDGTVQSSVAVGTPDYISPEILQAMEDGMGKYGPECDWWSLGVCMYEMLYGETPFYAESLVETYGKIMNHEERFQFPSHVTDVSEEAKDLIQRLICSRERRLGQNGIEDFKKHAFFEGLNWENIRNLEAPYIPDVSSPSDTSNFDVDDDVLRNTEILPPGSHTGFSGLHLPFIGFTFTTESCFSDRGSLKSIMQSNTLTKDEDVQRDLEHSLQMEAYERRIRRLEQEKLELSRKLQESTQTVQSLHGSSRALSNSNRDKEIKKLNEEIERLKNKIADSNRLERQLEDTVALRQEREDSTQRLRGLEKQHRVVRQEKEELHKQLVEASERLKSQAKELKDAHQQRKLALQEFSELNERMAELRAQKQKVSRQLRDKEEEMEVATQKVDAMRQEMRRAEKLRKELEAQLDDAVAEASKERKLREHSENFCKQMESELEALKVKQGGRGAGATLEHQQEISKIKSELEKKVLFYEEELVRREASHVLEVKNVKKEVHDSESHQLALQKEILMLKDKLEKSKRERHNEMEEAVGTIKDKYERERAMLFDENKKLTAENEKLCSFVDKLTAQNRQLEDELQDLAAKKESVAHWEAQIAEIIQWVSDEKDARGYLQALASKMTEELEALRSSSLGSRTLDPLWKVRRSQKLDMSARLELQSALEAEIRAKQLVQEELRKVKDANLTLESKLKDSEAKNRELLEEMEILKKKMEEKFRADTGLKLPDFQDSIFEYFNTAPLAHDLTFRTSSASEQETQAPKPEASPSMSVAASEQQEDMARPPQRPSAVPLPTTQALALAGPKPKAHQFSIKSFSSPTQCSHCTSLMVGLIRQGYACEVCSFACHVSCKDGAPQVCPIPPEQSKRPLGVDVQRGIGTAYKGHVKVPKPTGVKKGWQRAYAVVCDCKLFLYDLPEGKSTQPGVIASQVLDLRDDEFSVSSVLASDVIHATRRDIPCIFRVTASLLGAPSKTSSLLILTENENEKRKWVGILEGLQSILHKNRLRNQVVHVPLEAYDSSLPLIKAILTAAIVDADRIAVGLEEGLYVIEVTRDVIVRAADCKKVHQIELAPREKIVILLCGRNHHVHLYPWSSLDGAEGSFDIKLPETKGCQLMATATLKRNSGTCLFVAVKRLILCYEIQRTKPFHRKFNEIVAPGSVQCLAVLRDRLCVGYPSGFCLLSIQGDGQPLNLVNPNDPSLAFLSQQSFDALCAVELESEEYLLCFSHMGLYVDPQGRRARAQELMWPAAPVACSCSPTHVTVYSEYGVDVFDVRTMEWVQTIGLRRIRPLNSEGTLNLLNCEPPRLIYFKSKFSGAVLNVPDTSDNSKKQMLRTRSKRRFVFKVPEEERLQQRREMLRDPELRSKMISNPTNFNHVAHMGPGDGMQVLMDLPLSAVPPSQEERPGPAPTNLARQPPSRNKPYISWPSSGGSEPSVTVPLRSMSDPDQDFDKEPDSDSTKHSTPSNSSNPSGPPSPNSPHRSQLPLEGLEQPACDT

The structures appear in SMILES notation.

Regarding `CNC(=O)Nc1ccc(-c2nc(N3CC4CCC(C3)O4)c3cnn(C4CCC5(CC4)OCCO5)c3n2)cc1`, in test [1], the % of control turned out to be 100%. As to `CN(C)CCOc1ccc(-c2nc(-c3ccncc3)c(-c3ccc4c(c3)CC/C4=N\O)[nH]2)cc1`, the % of control in [2] amounted to 85%. On to `N#Cc1cccc(-c2c[nH]c3ncnc(N4CCOCC4)c23)c1`, for which the % of inhibition in [3] was 16%; in test [6], 13%. Moreover, the % of control in test [4] was 100%; in [5] it was 65%. Take `CC[C@@H]1[C@H](F)C(=O)N[C@@H]1COc1nccc2cc(C(N)=O)c(OC)cc12` [ZIMLOVISERTIB]: the % of inhibition in test [7] was 6.2%; in [8], 8.65%. As for `Cc1cc(F)c(C(=O)Nc2cccc(-c3nncn3C(C)C)n2)cc1-n1cnc(C2CC2)c1`, the % of control in [9] is 93%. In test [10], `CCC(=O)N1CCN(c2ccc(-n3c(=O)ccc4cnc5ccc(-c6cnc7ccccc7c6)cc5c43)cc2C(F)(F)F)CC1` yielded a % of control of 0%. Take `COCC(=O)NC/C=C/c1ccc2ncnc(Nc3ccc(Oc4ccc(C)nc4)c(C)c3)c2c1` [CP-724714]: the % of control in test [11] worked out at 100%; in [12], 96%.
